{"source": "paper PMC8234734", "about": "“Pharmacokinetics and Molecular Modeling Indicate nAChRα4-Derived Peptide HAEE Goes through the Blood–Brain Barrier” (Biomolecules, 2021)", "key": {"[1]": {"experiment": "In vitro stability assay of HAEE in human plasma", "assay_type": "in vitro ADME", "details": "1 mM in PBS, 20 µL diluted in 80 µL fresh human plasma, 37 °C, 24 h, MeOH precipitation, RP-HPLC UV 205 nm; data not shown", "experimental": "An in vitro assay of the unlabeled peptide stability was performed as described in [19]. Briefly, HAEE was prepared as a 1 mM solution in phosphate-buffered saline and 20 µL of the peptide solution was diluted in 80 µL of human plasma (freshly taken). The solution was incubated at 37 °C for different times, and the reaction was stopped by adding the Roche cOmplete Protease Inhibitor Cocktail (Roche Molecular Biochemicals, Mannheim, Germany). The bulk of the plasma proteins (but none of the peptide) was precipitated in cold methanol (1:4 (v/v) mixture/MeOH) for 1 h at […]. The precipitated proteins were pelleted by centrifugation at 10,000× g for 10 min at 4 °C. The supernatant containing the peptide was concentrated five times under vacuum and separated by RP-HPLC. The area of the peak (UV absorbance at 205 nm) corresponding to the intact peptide was measured and compared with an equivalent sample incubated in phosphate-buffered saline."}, "[2]": {"experiment": "Pharmacokinetics of HAEE in rabbit blood after single i.v. bolus", "assay_type": "in vivo", "experimental": "In experiments on rabbits (Table 1, experimental group 1), peptide administration and blood sampling were performed through the large ear veins. To restrict movement, the rabbit was placed in a restrainer with a head hole. Into the right ear, through the large ear vein, 4000 IU of heparin (FSUE “Moscow Endocrine Plant”, Moscow, Russia) in 0.8 mL of saline solution was injected using an insulin syringe, and after 5 min a Flexicath G22 intravenous catheter (Medica LLC, Ivanovo, Russia) was installed into the large ear vein of the left ear for subsequent blood sampling.\nA 0.5 mL of the mixture of HAEE and [^3H]HAEE (2000 µCi, at a dose of 120 µg/kg) was injected with an insulin syringe into the right ear vein for 10–15 s, and after 2, 4, 6, 10, 20, 30, 60, 90 and 120 min, approximately 0.5 mL of venous blood was collected through the catheter and placed into pre-weighed plastic tubes. Immediately after collection, blood tubes were frozen in liquid nitrogen and weighed.\nFrozen and weighed tissue samples in plastic tubes were freeze-dried for 48 h. The freeze-dried tissue samples were heated at 65 °C for 30 min, after which they were homogenized, and the peptide fraction was extracted with 90% aqueous acetonitrile containing 1% TFA [13]. To facilitate HPLC analysis of radioactively labeled HAEE and normalize the loss of the peptide during extraction, 10 μg of HAEE was added to the extraction solution for each sample. After centrifugation, the solution containing HAEE and blood components was dried under reduced pressure, stripped with methanol and re-centrifuged. The resulting solution containing a mixture of HAEE and [^3H]HAEE was subjected to evaporation under reduced pressure, re-extraction with 0.1% aqueous TFA solution and subsequent centrifugation. Quantitative analysis of the HAEE peptide was performed using HPLC on a Kromasil C18 column, 4 × 150 mm (Nouryon-Separation Products, Bohus, Sweden) in methanol concentration gradient (12–26% for 13 min), in 0.1% HFBA (heptafluorobutyric acid). The fraction containing the HAEE peptide was collected and its [^3H]HAEE content was determined by liquid scintillation counting. The obtained radioactivity value was normalized to the area of the HAEE peak in the chromatogram (UV absorbance at 220 nm).\nTo calculate the pharmacokinetic parameters, we used the values of HAEE peptide concentrations in blood and tissues averaged over three (rabbit) or six (rats and mice) animals. All quantitative values are given as means ± standard deviation. The calculation of pharmacokinetic parameters was performed by combining the model and non-model approaches using the software Borgia 1.03 (NPP Nauka Plus, Rovno, Ukraine) and SigmaPlot 11.0 (Systat Software, San Jose, CA, USA).\nTaking this into account, to determine the pharmacokinetic characteristics of HAEE after systemic administration to rabbits, we analyzed the peptide content in the blood for a long period of time, from 2 to 120 min. The peptide was administered i.v. at a dose of 120 μg/kg."}, "[3]": {"system": "α4β2 nAChR", "details": "model oocytes, exogenous HAEE; cited from earlier work", "source_text": "(§1) The tetrapeptide HAEE had been proposed as one of the candidate molecules for inhibiting cerebral amyloidogenesis in AD [7]. This peptide is a synthetic analogue of the 35-His-Ala-Glu-Glu-38 (35-HAEE-38) fragment of the extracellular N-terminal domain of subunit α4 of the α4β2 nAChR. This fragment (conservative for humans, mice and chicken) forms the interface for the interaction of α4β2 nAChR with Aβ [5]. It has been previously shown by molecular modeling methods that this interaction is stabilized by ion bridges between the complementary charged side groups of the H/E and E/H amino acid ..."}, "[4]": {"system": "B6C3-Tg (APPswe, PSEN1-dE9) 85Dbo/j mice", "details": "intravenous injections of HAEE; control animals 14.2 ± 3.1; cited from earlier work", "source_text": "as §1"}, "[5]": {"details": "rabbit blood, single i.v. bolus 120 μg/kg, n = 3"}, "[6]": {"details": "rabbit, single i.v. bolus 120 μg/kg, n = 3"}}, "data": [{"substance": "Acetyl-His-Ala-Glu-Glu-Amide [HAEE, synthetic tetrapeptide, analogue of the 35–38 region of the α4 subunit of α4β2 nicotinic acetylcholine receptor]", "values": [{"measurement": "Stability in human plasma (intact peptide peak area vs sample in PBS)", "setting": "[1]", "value": "no significant degradation"}, {"measurement": "Cmax (maximum concentration in the blood)", "setting": "[2]; rabbit blood, single i.v. bolus 120 μg/kg HAEE + [3H]HAEE, n = 3, sampling 2-120 min, HPLC + liquid scintillation", "value": 255, "unit": "ng/mL"}, {"measurement": "T1/2(el) (elimination half-life)", "setting": "[2]; [5]", "value": 20, "unit": "min"}, {"measurement": "Tmax", "setting": "[2]; [5]", "value": 4, "unit": "min"}, {"measurement": "AUC(0–∞)", "setting": "[2]; rabbit blood, single i.v. bolus 120 μg/kg, n = 3, 0-4 min by trapezoidal method", "value": "4421 (ng/mL) × min"}, {"measurement": "ClT (total body clearance)", "setting": "[2]; [6]", "value": 100, "unit": "mL/min"}, {"measurement": "Kel (elimination rate constant, central compartment)", "setting": "[2]; [6]", "value": 0.035, "unit": "min⁻¹"}, {"measurement": "MRT (residence time)", "setting": "[2]; [6]", "value": 29, "unit": "min"}, {"measurement": "Vd(c) (volume of distribution in the central compartment at Cmax)", "setting": "[2]; [6]", "value": 862, "unit": "mL"}, {"measurement": "Vd(extrap)", "setting": "[2]; [6]", "value": 3194, "unit": "mL"}, {"measurement": "Vd(β) (volume of distribution in the elimination phase)", "setting": "[2]; [6]", "value": 2860, "unit": "mL"}, {"measurement": "Effect on amyloid aggregates formed upon contact with α4β2 nAChR", "setting": "[3]", "value": "are destroyed"}, {"measurement": "Average number of amyloid plaques in a brain section", "setting": "[4]", "value": "5.8 ± 2.1"}]}]}
